This test has as its target recombinant human MGAT2 (Homo sapiens (Human), UniProt Q3SYC2). The test is described as follows: Measurement of human MGAT2 inhibitory activity. Format: biochemical. The settings on record: concentration exhibiting 50% enzyme inhibition; recombinant human MGAT2, 2-Oleoylglycerol/Oleoyl-CoA. As to the method:
A full-length human MGAT2 gene to which a Flag-tag had been added at the N-terminal was inserted into pFastBac (from Invitrogen). A recombinant baculovirus was produced in accordance with the protocol for a Bac-to-Bac baculovirus expression system (produced by Invitrogen), and Sf-9 cells were infected therewith. The cells were collected and sonicated, and then the membrane fraction was collected through centrifugation. Western blotting analysis with an anti-Flag antibody was performed for the membrane fraction to confirm expression, and the membrane fraction was used as a recombinant human MGAT2 enzyme solution.
Solutions of the compounds of the present invention in DMSO were each aliquoted into 0.2-μL portions in a 384-well polystyrene microplate produced by Corning Incorporated, and 5 μL of an enzyme solution prepared with an assay buffer (100 mmol/L phosphate buffer (pH 7.4) containing 2 mmol/L DTT) and 5 μL of a substrate solution (100 mmol/L phosphate buffer (pH 7.4), 30 μmol/L 2-Oleoylglycerol, 10 μmol/L Oleoyl-CoA) were added thereto, and the resultant was stirred and centrifuged, and incubated in a moist chamber at room temperature for 1 hour. After enzymatic reaction, 50 μL of a quenching solution (containing 0.2 μmol/L Diolein-d5, 0.4% formic acid, and 50% isopropanol) containing Internal Standard (IS) was added to terminate the reaction, and the resultant was sealed in a plate produced by Shimadzu GLC Ltd., and then stirred and centrifuged, and measurement was performed by using an electrospray ionization method with a RapidFire360 and Agilent 6550 Q-TOF mass spectrometer. Diolein as a reaction product (P) of 2-Oleoylglycerol as the substrate and an ammonium adduct ion of the IS were detected, and the peak intensity ratio, P/IS, was calculated from the peak heights to evaluate the inhibitory activity. Inhibitory activities with/without addition of enzyme were defined as Control (+)/Control (−), respectively, and the respective % inhibitions were defined as 0% inhibition and 100% inhibition. The inhibitory activity was calculated from formula below with TIBCO Spotfire (produced by TIBCO Software Inc.)
Inhibitory activity (%)=[1−{Sample−Control (−)}/{Control (+)−Control (−)}]*100 where Sample indicates a peak intensity ratio: P/IS, when the compound of the present invention was added.

Structures are written as SMILES.

Chain of recombinant human MGAT2 (Q3SYC2 whole entry): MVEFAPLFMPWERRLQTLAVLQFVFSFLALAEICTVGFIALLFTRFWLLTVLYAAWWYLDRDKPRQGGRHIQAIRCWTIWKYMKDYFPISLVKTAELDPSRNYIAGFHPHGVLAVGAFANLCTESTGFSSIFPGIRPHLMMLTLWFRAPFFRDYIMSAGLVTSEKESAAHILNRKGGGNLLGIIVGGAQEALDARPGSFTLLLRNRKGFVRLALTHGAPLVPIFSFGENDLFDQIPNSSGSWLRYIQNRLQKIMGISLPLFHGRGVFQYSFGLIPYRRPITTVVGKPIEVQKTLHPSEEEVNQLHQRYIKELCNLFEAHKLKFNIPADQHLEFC

Usually IC50 stands for the midpoint of a concentration-inhibition curve. In the case of `COCOc1ccc2c(c1)CCC21Cn2nc(-c3ccc(C#N)cn3)c(NC(=O)CS(C)(=O)=O)c2C(=O)N1` (centres unmarked) [Compound I-54], the IC50 was 5.88 nM.
Turning to `CS(=O)(=O)CC(=O)Nc1c(CCC2CC2)nn2c1C(=O)N[C@]1(CCc3cc(F)cc(F)c31)C2` [Compound I-149], the IC50 was found to be 23.4 nM.
To `CS(=O)(=O)CC(=O)Nc1c(-c2ccc(C#N)cn2)nn2c1C(=O)NC1(CN(c3ccc(C(F)(F)F)cc3)C1)C2` [Compound I-7] belongs 3.04 nM.
The value for `CS(=O)(=O)CC(=O)Nc1c(-c2ccc(C#N)cn2)nn2c1C(=O)N[C@]1(CCc3cc(OCC(F)(F)F)ccc31)C2` [Compound I-4] was 1.93 nM.
Regarding `CS(=O)(=O)CC(=O)Nc1c(-c2ccc(S(C)(=O)=O)cc2)nn2c1C(=O)N[C@@]1(CCc3cc(OCC(F)(F)F)ccc31)C2` [Compound I-48], the IC50 was 419 nM.
`Cc1cc(-c2nn3c(c2NC(=O)CS(C)(=O)=O)C(=O)N[C@]2(CCc4cc(OCC(F)(F)F)ccc42)C3)ccc1F` [Compound I-88]: the IC50 is 1.17 nM.
Regarding `Cc1ccc(-c2nn3c(c2NC(=O)c2ccno2)C(=O)N[C@@]2(CCc4cc(OCC(F)(F)F)ccc42)C3)nc1` [Compound I-42], the IC50 came to 11.3 nM.
Regarding `Cc1ccc(-c2nn3c(c2NC(=O)CC(F)(F)F)C(=O)N[C@@]2(CCc4cc(OCC(F)(F)F)ccc42)C3)nc1` [Compound I-43], the IC50 was found to be 368 nM.
Regarding `CS(=O)(=O)CC(=O)Nc1c(-c2ccc(OC(F)F)cc2)nn2c1C(=O)N[C@@]1(CCc3cc(OCC(F)(F)F)ccc31)C2` [Compound I-28], the IC50 was 3.89 nM.
For `CS(=O)(=O)CC(=O)Nc1c(-c2ccc(C(F)F)cc2)nn2c1C(=O)N[C@@]1(CCc3cc(OCC(F)(F)F)ccc31)C2` [Compound I-24], the IC50 turned out to be 1.37 nM.
Turning to `Cc1ccc(-c2nn3c(c2NC(=O)CS(C)(=O)=O)C(=O)N[C@@]2(CCc4cc(OCC(F)(F)F)ccc42)C3)cc1F` [Compound I-34], the IC50 worked out at 1.36 nM.
To `CS(=O)(=O)CC(=O)Nc1c(-c2ccc(F)cn2)nn2c1C(=O)N[C@]1(CCc3cc(F)cc(F)c31)C2` [Compound I-146] belongs 9.7 nM.
As for `CCOc1ccc2c(c1)OCC[C@@]21Cn2nc(-c3ccc(F)c(F)c3)c(NC(=O)CS(C)(=O)=O)c2C(=O)N1` [Compound I-135], the 50% inhibitory concentration (IC50) came to 3.22 nM.
To `CS(=O)(=O)CC(=O)Nc1c(-c2ccccc2)nn2c1C(=O)N[C@@]1(CCc3cc(OCC(F)(F)F)ccc31)C2` [Compound I-1] belongs 14 nM; to `CC(C)(O)c1ccc(-c2nn3c(c2NC(=O)CS(C)(=O)=O)C(=O)N[C@@]2(CCc4cc(OCC(F)(F)F)ccc42)C3)cc1` [Compound I-37], 21.2 nM; to `Cc1c(F)cc(-c2nn3c(c2NC(=O)CS(C)(=O)=O)C(=O)N[C@]2(CCc4cc(OCC(F)(F)F)ccc42)C3)cc1F` [Compound I-101], 1.36 nM.
Take `CS(=O)(=O)CC(=O)Nc1c(-c2ccc(F)c(F)c2)nn2c1C(=O)N[C@]1(CCc3cc(OCC(F)(F)F)ccc31)C2` [Compound I-89]: the IC50 is 0.761 nM.
Turning to `N#Cc1ccc(-c2nn3c(c2NC(=O)COC(F)(F)F)C(=O)N[C@]2(CCc4cc(OCC(F)(F)F)ccc42)C3)nc1` [Compound I-12], the IC50 worked out at 9.48 nM.
To `CCOc1ccc2c(c1)CC[C@@]21Cn2nc(CCC3CC3)c(NC(=O)CS(C)(=O)=O)c2C(=O)N1` [Compound I-111] belongs 7.61 nM; to `CCOc1ccc2c(c1)CC[C@@]21Cn2nc(-c3ccc(F)c(F)c3)c(NC(=O)CS(C)(=O)=O)c2C(=O)N1` [Compound I-69], 2.78 nM; to `CCOc1ccc2c(c1)OCC[C@]21Cn2nc(-c3ccc(F)cc3)c(NC(=O)CS(C)(=O)=O)c2C(=O)N1` [Compound I-132], 3.1 nM.
As for `CS(=O)(=O)CC(=O)Nc1c(CCC2CC2)nn2c1C(=O)N[C@@]1(CCOc3cc(OCC(F)(F)F)ccc31)C2` [Compound I-109], the IC50 is 1.18 nM.
To `CS(=O)(=O)CC(=O)Nc1c(-c2ccc(OC(F)(F)F)cc2)nn2c1C(=O)N[C@]1(CCc3cc(OCC(F)(F)F)ccc31)C2` [Compound I-83] belongs 4.37 nM; to `CC(C)c1ccc(-c2nn3c(c2NC(=O)CS(C)(=O)=O)C(=O)N[C@@]2(CCc4cc(OCC(F)(F)F)ccc42)C3)cc1` [Compound I-49], 4.79 nM.
As to `CCS(=O)(=O)CC(=O)Nc1c(-c2ccc(C)cn2)nn2c1C(=O)N[C@@]1(CCc3cc(OCC(F)(F)F)ccc31)C2` [Compound I-127], the IC50 amounted to 2.77 nM.
For `CS(=O)(=O)CC(=O)Nc1c(-c2ccc(C#N)c(F)c2)nn2c1C(=O)N[C@]1(CCc3cc(OCC(F)(F)F)ccc31)C2` [Compound I-99], the IC50 was 1.28 nM.
On to `Cc1ccc(-c2nn3c(c2NC(=O)CS(C)(=O)=O)C(=O)N[C@]2(CCc4cc(OCC(F)(F)F)ccc42)C3)nc1` [Compound I-5], for which the IC50 came to 2.81 nM.
To `Cc1ccc(-c2nn3c(c2NC(=O)CS(C)(=O)=O)C(=O)N[C@]2(CCc4cc(OCC(F)(F)F)ccc42)C3)cc1F` [Compound I-90] belongs 1.1 nM; to `CCOc1ccc2c(c1)CC[C@]21Cn2nc(-c3ccc(F)cc3)c(NC(=O)CS(C)(=O)=O)c2C(=O)N1` [Compound I-116], 6.72 nM.
Turning to `CS(=O)(=O)CC(=O)Nc1c(-c2ccccn2)nn2c1C(=O)N[C@]1(CCc3cc(OCC(F)(F)F)ccc31)C2` [Compound I-18], the IC50 was 3.6 nM.
As to `CS(=O)(=O)CC(=O)Nc1c(CCC2CC2)nn2c1C(=O)N[C@]1(CCOc3cc(OCC(F)(F)F)ccc31)C2` [Compound I-110], the IC50 came to 2.14 nM.
The value for `CS(=O)(=O)CC(=O)Nc1c(-c2ccc(Cl)c(F)c2)nn2c1C(=O)N[C@@]1(CCOc3cc(F)cc(F)c31)C2` [Compound I-144] was 1.4 nM; that for `Cc1cc(-c2nn3c(c2NC(=O)CS(C)(=O)=O)C(=O)N[C@@]2(CCc4cc(OCC(F)(F)F)ccc42)C3)ccc1F` [Compound I-32] was 1.19 nM.
For `CNS(=O)(=O)CC(=O)Nc1c(-c2ccc(C#N)cn2)nn2c1C(=O)N[C@@]1(CCc3cc(OCC(F)(F)F)ccc31)C2` [Compound I-16], the IC50 came to 1.44 nM.
To `CS(=O)(=O)CC(=O)Nc1c(-c2ccc(F)c(F)c2)nn2c1C(=O)N[C@]1(CCOc3cc(F)cc(F)c31)C2` [Compound I-152] belongs 8.24 nM; to `CC(C)(O)c1ccc(-c2nn3c(c2NC(=O)CS(C)(=O)=O)C(=O)N[C@]2(CCc4cc(OCC(F)(F)F)ccc42)C3)cc1` [Compound I-93], 9.47 nM; to `Cc1ccccc1-c1nn2c(c1NC(=O)CS(C)(=O)=O)C(=O)N[C@]1(CCc3cc(OCC(F)(F)F)ccc31)C2` [Compound I-78], 88.3 nM.
To `N#Cc1ccc(-c2nn3c(c2NC(=O)C2CS(=O)(=O)C2)C(=O)N[C@]2(CCc4cc(OCC(F)(F)F)ccc42)C3)nc1` [Compound I-10] belongs 1.91 nM; to `CNS(=O)(=O)CC(=O)Nc1c(-c2ccc(C#N)cn2)nn2c1C(=O)N[C@]1(CCc3cc(OCC(F)(F)F)ccc31)C2` [Compound I-11], 1.08 nM; to `N#Cc1ccc(-c2nn3c(c2NC(=O)C2CS(=O)(=O)C2)C(=O)N[C@@]2(CCc4cc(OCC(F)(F)F)ccc42)C3)nc1` [Compound I-15], 2.56 nM.
`CCCCCc1nn2c(c1NC(=O)CS(C)(=O)=O)C(=O)N[C@]1(CCc3cc(OCC)ccc31)C2` [Compound I-115]: the IC50 was found to be 14.5 nM.
